Laboratory results: BindingDB's records for doi:10.1016/s0960-894x(98)00738-0 (Cubist Pharmaceuticals, 1999)

How the values were obtained:
[1] = target: Isoleucine--tRNA ligase (Escherichia coli) (UniProt P00956); assay: Inhibition of Escherichia coli isoleucyl-tRNA synthetase
[2] = target: Leucine--tRNA ligase (Escherichia coli) (UniProt P07813); assay: Compound tested for the inhibition of Escherichia coli Leucyl-tRNA synthetase
[3] = target: Alanine--tRNA ligase (Escherichia coli) (UniProt P00957); assay: Compound tested for the inhibition of Escherichia coli Alanine-tRNA synthetase
Chain of Alanine--tRNA ligase (Escherichia coli) (P00957 whole entry, looked up): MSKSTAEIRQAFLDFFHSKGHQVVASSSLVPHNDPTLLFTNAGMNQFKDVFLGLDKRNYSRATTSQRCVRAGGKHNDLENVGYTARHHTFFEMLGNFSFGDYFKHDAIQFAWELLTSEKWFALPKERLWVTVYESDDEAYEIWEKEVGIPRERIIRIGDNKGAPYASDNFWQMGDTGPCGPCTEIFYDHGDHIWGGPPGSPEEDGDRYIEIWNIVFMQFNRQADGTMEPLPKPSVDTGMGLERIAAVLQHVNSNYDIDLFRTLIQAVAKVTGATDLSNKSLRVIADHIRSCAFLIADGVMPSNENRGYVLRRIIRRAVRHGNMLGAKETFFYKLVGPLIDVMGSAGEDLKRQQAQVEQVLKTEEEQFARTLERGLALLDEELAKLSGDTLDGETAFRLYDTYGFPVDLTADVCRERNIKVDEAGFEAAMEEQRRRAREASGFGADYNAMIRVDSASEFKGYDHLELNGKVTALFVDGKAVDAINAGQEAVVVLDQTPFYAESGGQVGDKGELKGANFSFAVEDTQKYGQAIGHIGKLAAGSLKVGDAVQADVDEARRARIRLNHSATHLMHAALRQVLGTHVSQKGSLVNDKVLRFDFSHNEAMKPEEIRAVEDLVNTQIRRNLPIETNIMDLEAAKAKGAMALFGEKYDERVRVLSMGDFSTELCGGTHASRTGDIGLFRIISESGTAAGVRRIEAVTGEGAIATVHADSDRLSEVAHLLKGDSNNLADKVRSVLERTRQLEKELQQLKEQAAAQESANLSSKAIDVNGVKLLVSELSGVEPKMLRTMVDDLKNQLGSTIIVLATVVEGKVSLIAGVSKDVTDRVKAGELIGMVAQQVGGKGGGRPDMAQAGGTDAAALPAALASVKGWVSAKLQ

Chain of Leucine--tRNA ligase (Escherichia coli) (P07813 whole entry, looked up): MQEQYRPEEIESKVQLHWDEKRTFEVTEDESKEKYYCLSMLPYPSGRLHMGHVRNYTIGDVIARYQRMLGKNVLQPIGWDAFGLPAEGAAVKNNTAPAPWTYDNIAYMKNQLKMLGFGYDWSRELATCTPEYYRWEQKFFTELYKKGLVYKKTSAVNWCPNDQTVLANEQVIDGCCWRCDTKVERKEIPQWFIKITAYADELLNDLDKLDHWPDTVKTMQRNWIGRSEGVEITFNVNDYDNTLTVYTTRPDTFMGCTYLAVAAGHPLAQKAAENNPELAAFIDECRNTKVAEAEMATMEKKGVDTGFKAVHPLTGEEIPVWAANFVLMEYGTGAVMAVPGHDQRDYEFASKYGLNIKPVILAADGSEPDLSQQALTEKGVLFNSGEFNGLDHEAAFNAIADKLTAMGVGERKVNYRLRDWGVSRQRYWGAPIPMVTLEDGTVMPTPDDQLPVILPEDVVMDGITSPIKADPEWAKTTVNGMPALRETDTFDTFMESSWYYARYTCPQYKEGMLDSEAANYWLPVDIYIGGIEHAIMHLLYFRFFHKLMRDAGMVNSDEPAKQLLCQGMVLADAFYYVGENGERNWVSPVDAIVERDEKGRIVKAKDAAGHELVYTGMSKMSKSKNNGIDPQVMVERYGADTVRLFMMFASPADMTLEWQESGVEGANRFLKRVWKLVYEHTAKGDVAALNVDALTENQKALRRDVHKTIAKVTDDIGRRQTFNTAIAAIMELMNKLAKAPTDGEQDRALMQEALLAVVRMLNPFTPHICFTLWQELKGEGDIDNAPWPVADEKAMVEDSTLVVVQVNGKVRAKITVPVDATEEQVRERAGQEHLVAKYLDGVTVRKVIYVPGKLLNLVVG
Chain of Isoleucine--tRNA ligase (Escherichia coli) (P00956 whole entry, looked up): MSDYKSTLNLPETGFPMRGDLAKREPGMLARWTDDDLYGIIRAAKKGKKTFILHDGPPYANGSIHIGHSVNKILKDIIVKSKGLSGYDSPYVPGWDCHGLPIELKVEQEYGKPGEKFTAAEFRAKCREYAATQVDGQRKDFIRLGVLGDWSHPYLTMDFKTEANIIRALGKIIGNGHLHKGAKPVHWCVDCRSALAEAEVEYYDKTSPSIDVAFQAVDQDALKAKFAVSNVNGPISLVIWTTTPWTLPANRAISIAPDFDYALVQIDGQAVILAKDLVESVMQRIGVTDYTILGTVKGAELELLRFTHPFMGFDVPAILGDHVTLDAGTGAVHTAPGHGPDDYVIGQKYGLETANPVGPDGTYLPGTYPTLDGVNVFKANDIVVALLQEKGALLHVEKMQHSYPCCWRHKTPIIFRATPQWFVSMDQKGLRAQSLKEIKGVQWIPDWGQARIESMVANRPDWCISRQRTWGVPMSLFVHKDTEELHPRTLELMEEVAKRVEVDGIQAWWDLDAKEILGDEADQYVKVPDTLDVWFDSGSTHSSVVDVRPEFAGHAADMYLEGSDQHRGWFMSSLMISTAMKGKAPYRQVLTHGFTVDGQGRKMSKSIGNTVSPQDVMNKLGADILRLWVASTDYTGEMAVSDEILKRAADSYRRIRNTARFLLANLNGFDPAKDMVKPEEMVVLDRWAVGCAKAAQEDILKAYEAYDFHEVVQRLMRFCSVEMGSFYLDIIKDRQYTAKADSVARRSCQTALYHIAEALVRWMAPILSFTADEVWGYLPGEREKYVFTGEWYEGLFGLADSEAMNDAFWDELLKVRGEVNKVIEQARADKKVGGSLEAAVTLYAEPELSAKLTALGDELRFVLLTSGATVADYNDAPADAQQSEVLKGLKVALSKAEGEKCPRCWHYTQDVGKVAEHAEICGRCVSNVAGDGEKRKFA

| IC50 [1] | IC50 [2] | IC50 [3] | Structure (SMILES) |
| --- | --- | --- | --- |
| 15 nM |  |  | CCC(C)[C@H](N)C(=O)NS(=O)(=O)OC[C@H]1O[C@@H](c2nc(-c3cccc(OC)c3)cs2)[C@H](O)[C@@H]1O (stereo partly drawn) [((S)-2-Amino-3-methyl-pentanoyl)-sulfamic acid (2R,3S,4R,5R)-3,4-dihydroxy-5-[4-(3-methoxy-phenyl)-thiazol-2-yl]-tetrahydro-furan-2-ylmethyl ester] |
| 15000 nM | 14000 nM | > 100000 nM | CC(C)[C@H](N)C(=O)NS(=O)(=O)OC[C@H]1O[C@@H](c2nc(-c3ccccc3)cs2)[C@H](O)[C@@H]1O [((S)-2-Amino-3-methyl-butyryl)-sulfamic acid (2R,3S,4R,5R)-3,4-dihydroxy-5-(4-phenyl-thiazol-2-yl)-tetrahydro-furan-2-ylmethyl ester] |
| 30 nM |  |  | CCC(C)[C@H](N)C(=O)NS(=O)(=O)OC[C@H]1O[C@@H](c2nc(CCc3ccccc3)cs2)[C@H](O)[C@@H]1O (stereo partly drawn) [((S)-2-Amino-3-methyl-pentanoyl)-sulfamic acid (2R,3S,4R,5R)-3,4-dihydroxy-5-(4-phenethyl-thiazol-2-yl)-tetrahydro-furan-2-ylmethyl ester] |
| 30 nM |  |  | CCC(C)[C@H](N)C(=O)NS(=O)(=O)OC[C@H]1O[C@@H](c2nc(-c3ccccc3OC)cs2)[C@H](O)[C@@H]1O (stereo partly drawn) [((S)-2-Amino-3-methyl-pentanoyl)-sulfamic acid (2R,3S,4R,5R)-3,4-dihydroxy-5-[4-(2-methoxy-phenyl)-thiazol-2-yl]-tetrahydro-furan-2-ylmethyl ester] |
| > 100000 nM | > 100000 nM | > 100000 nM | N[C@@H](Cc1ccccc1)C(=O)NS(=O)(=O)OC[C@H]1O[C@@H](c2nc(-c3ccccc3)cs2)[C@H](O)[C@@H]1O [((S)-2-Amino-3-phenyl-propionyl)-sulfamic acid (2R,3S,4R,5R)-3,4-dihydroxy-5-(4-phenyl-thiazol-2-yl)-tetrahydro-furan-2-ylmethyl ester] |
| 100000 nM | > 100000 nM | > 100000 nM | C[C@H](N)C(=O)NS(=O)(=O)OC[C@H]1O[C@@H](c2nc(-c3ccccc3)cs2)[C@H](O)[C@@H]1O [((S)-2-Amino-propionyl)-sulfamic acid (2R,3S,4R,5R)-3,4-dihydroxy-5-(4-phenyl-thiazol-2-yl)-tetrahydro-furan-2-ylmethyl ester] |
| > 100000 nM | > 100000 nM | > 100000 nM | N[C@@H](Cc1cnc[nH]1)C(=O)NS(=O)(=O)OC[C@H]1O[C@@H](c2nc(-c3ccccc3)cs2)[C@H](O)[C@@H]1O [[(S)-2-Amino-3-(3H-imidazol-4-yl)-propionyl]-sulfamic acid (2R,3S,4R,5R)-3,4-dihydroxy-5-(4-phenyl-thiazol-2-yl)-tetrahydro-furan-2-ylmethyl ester] |
|  | 1.6 nM |  | CC(C)C[C@H](N)C(=O)NS(=O)(=O)OC[C@H]1O[C@@H](c2nc(-c3ccc(Oc4ccccc4)cc3)cs2)[C@H](O)[C@@H]1O [((S)-2-Amino-4-methyl-pentanoyl)-sulfamic acid (2R,3S,4R,5R)-3,4-dihydroxy-5-[4-(4-phenoxy-phenyl)-thiazol-2-yl]-tetrahydro-furan-2-ylmethyl ester] |
| 110 nM |  |  | CCC(C)[C@H](N)C(=O)NS(=O)(=O)OC[C@H]1O[C@@H](c2nc(CCc3ccc(Oc4ccccc4)cc3)cs2)[C@H](O)[C@@H]1O (stereo partly drawn) [((S)-2-Amino-3-methyl-pentanoyl)-sulfamic acid (2R,3S,4R,5R)-3,4-dihydroxy-5-{4-[2-(4-phenoxy-phenyl)-ethyl]-thiazol-2-yl}-tetrahydro-furan-2-ylmethyl ester] |
| 45 nM |  |  | CCC(C)[C@H](N)C(=O)NS(=O)(=O)OC[C@H]1O[C@@H](c2nc(-c3ccc(Oc4ccccc4)cc3)cs2)[C@H](O)[C@@H]1O (stereo partly drawn) [((S)-2-Amino-3-methyl-pentanoyl)-sulfamic acid (2R,3S,4R,5R)-3,4-dihydroxy-5-[4-(4-phenoxy-phenyl)-thiazol-2-yl]-tetrahydro-furan-2-ylmethyl ester] |
| 100 nM |  |  | CCC(C)[C@H](N)C(=O)NS(=O)(=O)OC[C@H]1O[C@@H](c2nc(-c3ccc(OC)cc3)cs2)[C@H](O)[C@@H]1O (stereo partly drawn) [((S)-2-Amino-3-methyl-pentanoyl)-sulfamic acid (2R,3S,4R,5R)-3,4-dihydroxy-5-[4-(4-methoxy-phenyl)-thiazol-2-yl]-tetrahydro-furan-2-ylmethyl ester] |
| 100 nM |  | > 100000 nM | CC[C@H](C)[C@H](N)C(=O)NS(=O)(=O)OC[C@H]1O[C@@H](c2nc(-c3ccccc3)cs2)[C@H](O)[C@@H]1O [((2S,3S)-2-Amino-3-methyl-pentanoyl)-sulfamic acid (2R,3S,4R,5R)-3,4-dihydroxy-5-(4-phenyl-thiazol-2-yl)-tetrahydro-furan-2-ylmethyl ester] |
|  | < 2 nM |  | CC(C)C[C@H](N)C(=O)NS(=O)(=O)OC[C@H]1O[C@@H](c2nc(CCc3ccccc3)cs2)[C@H](O)[C@@H]1O [((S)-2-Amino-4-methyl-pentanoyl)-sulfamic acid (2R,3S,4R,5R)-3,4-dihydroxy-5-(4-phenethyl-thiazol-2-yl)-tetrahydro-furan-2-ylmethyl ester] |
|  | 6 nM |  | CC(C)C[C@H](N)C(=O)NS(=O)(=O)OC[C@H]1O[C@@H](c2nc(CCc3ccc(Oc4ccccc4)cc3)cs2)[C@H](O)[C@@H]1O [((S)-2-Amino-4-methyl-pentanoyl)-sulfamic acid (2R,3S,4R,5R)-3,4-dihydroxy-5-{4-[2-(4-phenoxy-phenyl)-ethyl]-thiazol-2-yl}-tetrahydro-furan-2-ylmethyl ester] |

| Structure (SMILES) | IC50 [1] | IC50 [2] | IC50 [3] |
| --- | --- | --- | --- |
| CCC(C)[C@H](N)C(=O)NS(=O)(=O)OC[C@H]1O[C@@H](c2nc(-c3ccc4cc(OC)ccc4c3)cs2)[C@H](O)[C@@H]1O (stereo partly drawn) [((S)-2-Amino-3-methyl-pentanoyl)-sulfamic acid (2R,3S,4R,5R)-3,4-dihydroxy-5-[4-(6-methoxy-naphthalen-2-yl)-thiazol-2-yl]-tetrahydro-furan-2-ylmethyl ester] | 20 nM |  |  |
